Molecules are shown by their SMILES.

The data set in a line: Mouse PK study (oral pharmacokinetics). It is filed as in vivo. The conditions noted are these: male, 10 mg/kg, CD-1 mice, plasma, read-out: AUC indicator (oral AUC). The protocol:
Oral pharmacokinetics of each of the compounds shown in Table 1 (“test compound”) were determined as follows.
Test compound was formulated in PEG400:ethanol:saline (40:20:40, by volume) for IV administration and in 30% Captisol in water for both IV and PO administration in CD-1 mice. Labetalol was used as an internal standard for the LC-MS/MS assay of the CD-1 mouse samples.
Adult male CD-1 mice were obtained from Charles River Laboratories in Portage, Mich. At the time of study-start, each CD-1 mouse weighed approximately 30 grams and was between the ages of 7-9 weeks. All CD-1 mice were acclimated to the Array BioPharma Inc. vivarium for at least 5 days prior to administration of an IV dose by way of a tail vein injection (5 mL/kg) or a PO dose by oral gavage (10 mL/kg).
Animals were euthanized by CO2 inhalation and blood samples were collected by cardiac puncture into syringes containing a 1.5% EDTA solution in water (w/v; pH was titrated to 7.4 with 5 N NaOH; the final ratio of blood to EDTA was approximately […]) as the anticoagulant. Plasma was harvested from blood samples by centrifugation and stored at −20° C. until analysis. The following time points were collected for the IV arm: 0.017, 0.083, 0.25, 0.5, 1, 2, 4, 8, 12 and 24 hours post dose. The following time points were collected for the PO arm: 0.25, 0.50, 1, 4, 8, and 24 hours post dose.
Protein was precipitated from 20 μL of mouse plasma with the addition of 200 μL of 0.1% acetic acid in acetonitrile. A single 12-point calibration curve was prepared by first serially diluting (3-fold) a 40-μg/mL stock solution of the test compound in acetonitrile. Naive CD-1 mouse plasma (20 μL) was then added to each standard solution (200 μL). A stock solution of the internal standard (Labetalol; 180 μL of 0.1 μg/mL in acetonitrile) was subsequently added to each standard and sample solution, for a total volume of 400 μL. Samples were vortex-mixed for 5 minutes and spun in an Allegra X-12R centrifuge (Beckman Coulter, Fullerton, Calif.) for 15 minutes at approximately 1,500×g at 4° C. A 100-μL aliquot of each supernatant was transferred via a 550 μL Personal Pipettor (Apricot Designs, Monrovia, Calif.) to 96-well plates and diluted 1:1 with HPLC grade water. The resulting plates were sealed with plate mats and analyzed by LC-MS/MS.
The LC-MS/MS system was comprised of an HTC-PAL autosampler (Leap Technologies, Inc., Carrboro, N.C.), an HP1100 HPLC (Agilent Technologies Inc., Santa Clara, Calif.), and an API4000 triple quadrupole mass spectrometer (Applied Biosystems, Foster City, Calif.). Chromatographic retention of the analyte and internal standard was achieved using a Betasil Phenyl-Hexyl column (2.1×30 mm, 3 μm particle size, Thermo Scientific) in conjunction with gradient conditions using mobile phases A (aqueous 0.1% formic acid and 1% IPA) and B (0.1% formic acid in acetonitrile). The total run time, including re-equilibration time, for a single injection was 3.5 minutes. Mass spectrometric detection of the analytes was accomplished using ESI+ ionization mode. Ion current was optimized during infusion of a stock solution of the test compound. Analyte responses were measured by multiple reaction monitoring (MRM) of transitions unique to each compound.
Data were acquired and processed using the Applied Biosystems Analyst software (version 1.4.2). Calibration was achieved by plotting the peak area ratios of analyte to internal standard as a function of the normal concentrations of standard samples. A calibration model was generated by quadratic regression of the calibration curve with a weighting factor of 1/x. The model was used to calculate the concentrations in all samples. The lower limit of quantitation (LLOQ) for this analysis was in the single-digit μg/mL range (either 2.03 or 6.10 μg/mL).
Pharmacokinetic parameters were calculated by established non-compartmental methods using an in-house Excel® (Microsoft Corporation, Redmond, Wash.) macro, PK Toolbox version 2.0. […]
For orientation: AUC means the area under the concentration-time curve, a measure of exposure. On to `Cc1nn(C)c(C)c1Oc1cc(Sc2ccccn2)cnc1Nc1nc([C@H](O)C(C)(C)O)ns1.Cl` [Example 146, (S)-2-methyl-1-(5-(5-(pyridin-2-ylthio)-3-(1,3,5-trimethyl-1H-pyrazol-4-yloxy)pyridin-2-ylamino)-1,2,4-thiadiazol-3-yl)propane-1,2-diol hydrochloride], for which the AUC lay within 10000 to 20000 ng·h/mL.
For `CCc1ncccc1Oc1cc(Sc2ccccn2)cnc1Nc1nc([C@H](O)CO)ns1` [Example 137], the AUC was in the range of 5000 to 10000 ng·h/mL.
Consider `Cc1ccc(Oc2cc(Sc3ccccn3)cnc2Nc2nc([C@H](O)CO)ns2)c(C)n1.Cl` [Example 135, (S)-1-(5-(3-(2,6-dimethylpyridin-3-yloxy)-5-(pyridin-2-ylthio)pyridin-2-ylamino)-1,2,4-thiadizol-3-yl)ethane-1,2-diol hydrochloride], for which the AUC was 5000 to 10000 ng·h/mL.
As to `Cc1ncccc1Oc1cc(Sc2ccccn2)cnc1Nc1nc([C@@](C)(O)CO)ns1.Cl` [Example 151, (R)-2-(5-(3-(2-methylpyridin-3-yloxy)-5-(pyridin-2-ylthio)pyridin-2-ylamino)-1,2,4-thiadiazol-3-yl)propane-1,2-diol hydrochloride], the AUC is greater than 20000 ng·h/mL.
Take `COCCCSc1cnc(Nc2nc([C@H](O)CO)ns2)c(Oc2cccnc2C)c1.Cl` [Example 138, (S)-1-(5-(5-(3-methoxypropylthio)-3-(2-methylpyridin-3-yloxy)-pyridin-2-ylamino)-1,2,4-thiadizol-3-yl)ethane-1,2-diol hydrochloride]: the AUC is 1000 to 5000 ng·h/mL.
The value for `COCCSc1cnc(Nc2nc([C@H](O)CO)ns2)c(Oc2cccnc2C)c1.Cl` [Example 144, (S)-1-(5-(5-(2-methoxyethylthio)-3-(2-methylpyridin-3-yloxy)pyridin-2-ylamino)-1,2,4-thiadiazol-3-yl)ethane-1,2-diol hydrochloride] was 5000 to 10000 ng·h/mL.
Turning to `Cc1ccnc(C)c1Oc1cc(Sc2ccccn2)cnc1Nc1nc([C@H](O)CO)ns1.Cl` [Example 142, (S)-1-(5-(3-(2,4-dimethylpyridin-3-yloxy)-5-(pyridin-2-ylthio)pyridin-2-ylamino)-1,2,4-thiadiazol-3-yl)ethane-1,2-diol hydrochloride], the AUC is 1000 to 5000 ng·h/mL.
The value for `Cc1ncccc1Oc1cc(Sc2ccccn2)cnc1Nc1nc([C@H](O)C(C)(C)O)ns1.Cl` [Example 143, (S)-2-methyl-1-(5-(3-(2-methylpyridin-3-yloxy)-5-(pyridin-2-ylthio)pyridin-2-ylamino)-1,2,4-thiadiazol-3-yl)propane-1,2-diol hydrochloride] was greater than 20000 ng·h/mL.
The value for `Cc1ncccc1Oc1cc(Sc2ccccn2)cnc1Nc1nc([C@](C)(O)CO)ns1.Cl` [Example 150, (S)-2-(5-(3-(2-methylpyridin-3-yloxy)-5-(pyridin-2-ylthio)pyridin-2-ylamino)-1,2,4-thiadiazol-3-yl)propane-1,2-diol hydrochloride] was 10000 to 20000 ng·h/mL.
The same measure for `CCc1ncccc1Oc1cc(Sc2ccccn2)cnc1Nc1nc([C@H](O)[C@@H](O)COC)ns1.Cl` [Example 145, (1S,2S)-1-(5-(3-(2-ethylpyridin-3-yloxy)-5-(pyridin-2-ylthio)pyridin-2-ylamino)-1,2,4-thiadiazol-3-yl)-3-methoxypropane-1,2-diol hydrochloride]: 5000 to 10000 ng·h/mL.
Turning to `Cc1ncccc1Oc1cc(Sc2ccccn2)cnc1Nc1nc([C@@H](O)CO)ns1` [Example 149, (R)-1-(5-(3-(2-methylpyridin-3-yloxy)-5-(pyridin-2-ylthio)pyridin-2-ylamino)-1,2,4-thiadiazol-3-yl)ethane-1,2-diol], the AUC lay within 5000 to 10000 ng·h/mL.
On to `CCn1nccc1Oc1cc(Sc2ccccn2)cnc1Nc1nc([C@H](O)CO)ns1.Cl` [Example 139, (S)-1-(5-(3-(1-Ethyl-1H-pyrazol-5-yloxy)-5-(pyridin-2-ylthio)pyridin-2-ylamino)-1,2,4-thiadiazol-3-yl)ethane-1,2-diol hydrochloride], for which the AUC was greater than 20000 ng·h/mL.
The same measure for `Cc1nn(C)c(C)c1Oc1cc(Sc2ccccn2)cnc1Nc1nc([C@H](O)CO)ns1.Cl` [Example 147, (S)-1-(5-(5-(pyridin-2-ylthio)-3-(1,3,5-trimethyl-1H-pyrazol-4-yloxy)pyridin-2-ylamino)-1,2,4-thiadiazol-3-yl)ethane-1,2-diol hydrochloride]: 1000 to 5000 ng·h/mL; for `Cc1ncccc1Oc1cc(Sc2ccccn2)cnc1Nc1nc([C@H](O)CO)ns1.Cl` [Example 134, (S)-1-(5-(3-(2-methylpyridin-3-yloxy)-5-(pyridin-2-ylthio)pyridin-2-ylamino)-1,2,4-thiadiazol-3-yl)ethane-1,2-diol hydrochloride]: 10000 to 20000 ng·h/mL; for `Cc1ncccc1Oc1cc(SCC2CC2)cnc1Nc1nc([C@H](O)CO)ns1.Cl` [Example 136, (S)-1-(5-(5-(cyclopropylmethylthio)-3-(2-methylpyridin-3-yloxy)pyridin-2-ylamino)-1,2,4-thiadizol-3-yl)ethane-1,2-diol hydrochloride]: 10000 to 20000 ng·h/mL.
The same measure for `COCCSc1cnc(Nc2nc([C@H](O)CO)ns2)c(Oc2c(C)nn(C)c2C)c1.Cl` [Example 148, (S)-1-(5-(5-(2-methoxyethylthio)-3-(1,3,5-trimethyl-1H-pyrazol-4-yloxy)pyridin-2-ylamino)-1,2,4-thiadiazol-3-yl)ethane-1,2-diol hydrochloride]: 1000 to 5000 ng·h/mL.
The value for `Cc1cccnc1Sc1cnc(Nc2nc([C@H](O)CO)ns2)c(Oc2cccnc2C)c1.Cl` [Example 141, (S)-1-(5-(5-(3-methylpyridin-2-ylthio)-3-(2-methylpyridin-3-yloxy)pyridin-2-ylamino)-1,2,4-thiadiazol-3-yl)ethane-1,2-diol hydrochloride] was 1000 to 5000 ng·h/mL.
For `CCn1nccc1Oc1cc(Sc2ccccn2)cnc1Nc1nc([C@H](O)C(C)(C)O)ns1.Cl` [Example 140, (S)-1-(5-(3-(1-ethyl-1H-pyrazol-5-yloxy)-5-(pyridin-2-ylthio)pyridin-2-ylamino)-1,2,4-thiadiazol-3-yl)-2-methylpropane-1,2-diol], the AUC is greater than 20000 ng·h/mL.

These data come from patent US8853409B2, “Pyridin-2yl-amino-1, 2, 4-thiadiazole derivatives as glucokinase activators for the treatment of diabetes mellitus” (Array BioPharma Inc., priority 2007, dated 2014).
